Experimental data taken from PubChem BioAssay AID328 (DTP/NCI, 2004).
Inconclusive results and toxic doses are left out. Non-standard residues stand in square brackets, D forms with d. Residues, ends and D or L forms follow the SMILES beside them. ξ: configuration not given here. *: point of attachment. Boc = CC(C)(C)OC(=O)*; ξP = O=C(O)C1CCCN1

Tested on: BDF1 mice, P388 leukemia ip, median survival T/C
Assay: NCI In Vivo Anticancer Drug Screen. Data for tumor model P388 Leukemia (intraperitoneal) in B6D2F1 (BDF1) mice
Conditions: endpoint: median survival time, higher = longer survival
Method in brief: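 Steps: implant the tumour, treat one group with compound and another with vehicle, record survival, then divide treated by control.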

[1] = dose: 50.0 mg/kg/injection, schedule: Q04DX003 (ip), vehicle: saline
[2] = dose: 100.0 mg/kg/injection, schedule: Q04DX003 (ip), vehicle: saline
[3] = dose: 200.0 mg/kg/injection, schedule: Q04DX003 (ip), vehicle: saline
[4] = dose: 50.0 mg/kg/injection, schedule: Q01DX005 (ip), vehicle: saline
[5] = dose: 100.0 mg/kg/injection, schedule: Q01DX005 (ip), vehicle: saline
[6] = dose: 200.0 mg/kg/injection, schedule: Q01DX005 (ip), vehicle: saline

In the case of `NCCCCS(=O)(=O)Nc1ccc(Nc2c3ccccc3nc3cc([N+](=O)[O-])ccc23)cc1`, the T/C (dose: 2.93 mg/kg/injection, schedule: Q04DX003 (ip), vehicle: saline) is reported as 122 % of control, the T/C (dose: 33.0 mg/kg/injection, schedule: Q04DX003 (ip), vehicle: saline) is reported as 154 % of control and the T/C [1] is reported as 154 % of control. For the same compound, the T/C (dose: 75.0 mg/kg/injection, schedule: Q04DX003 (ip), vehicle: saline) was 172 % of control, the T/C [2] was 161 % of control and the T/C [3] was 161 % of control.
For `CC(C)(C)OC(=O)NCC(=O)N1CCCC1C(=O)O` (stereo not drawn) (Boc-Gly-[ξP]-OH), the T/C [4] was 92 % of control, the T/C [5] was 90 % of control and the T/C [6] was 100 % of control.
For `COc1cc(/C=N/n2cnnc2)cc(OC)c1OC`, the T/C [2] was 100 % of control, the T/C [3] was 100 % of control and the T/C (dose: 400.0 mg/kg/injection, schedule: Q04DX003 (ip), vehicle: saline) was 109 % of control.
For `O=C(C[N+]12CN3CN(CN(C3)C1)C2)c1ccc(Cl)cc1`, the T/C (dose: 25.0 mg/kg/injection, schedule: Q04DX003 (ip), vehicle: saline) was 100 % of control, the T/C (dose: 44.0 mg/kg/injection, schedule: Q04DX003 (ip), vehicle: saline sonified) was 104 % of control and the T/C (dose: 50.0 mg/kg/injection, schedule: Q01DX009 (ip), vehicle: saline with Tween-80) was 107 % of control. For the same compound, the T/C [1] was 110 % of control, the T/C (dose: 66.0 mg/kg/injection, schedule: Q04DX003 (ip), vehicle: saline sonified) was 118 % of control and the T/C (dose: 100.0 mg/kg/injection, schedule: Q01DX009 (ip), vehicle: saline with Tween-80) was 119 % of control. For the same compound, the T/C (dose: 200.0 mg/kg/injection, schedule: Q01DX009 (ip), vehicle: saline with Tween-80) was 119 % of control.
`CC(=O)NC(Cc1ccccc1)C(=O)NC(CCCN=C(N)N)C(=O)O` (stereo not drawn) (Ac-Phe-Arg-OH; configuration not given here) was tested, and the T/C [4] was 108 % of control, the T/C [5] was 115 % of control and the T/C [6] was 105 % of control.
`CC1(C)CCSC(/C=C/c2ccccc2)=N1` was tested, and the T/C (dose: 50.0 mg/kg/injection, schedule: Q01DX009 (ip), vehicle: Klucel (hydroxypropylcellulose) (HPC)) was 103 % of control and the T/C (dose: 100.0 mg/kg/injection, schedule: Q01DX009 (ip), vehicle: Klucel (hydroxypropylcellulose) (HPC)) was 121 % of control.
`O=[N+]([O-])c1cc(C(F)(F)F)ccc1/C=C/c1ccccc1Br` was tested, and the T/C (dose: 75.0 mg/kg/injection, schedule: Q04DX003 (ip), vehicle: saline with Tween-80) was 86 % of control, the T/C (dose: 150.0 mg/kg/injection, schedule: Q04DX003 (ip), vehicle: saline with Tween-80) was 90 % of control and the T/C (dose: 300.0 mg/kg/injection, schedule: Q04DX003 (ip), vehicle: saline with Tween-80) was 100 % of control.
`O=C=Nc1ccc(Cl)c(Cl)c1` (tested in a mixture with another compound) was tested, and the T/C (dose: 50.0 mg/kg/injection, schedule: Q01DX011 (ip), vehicle: Klucel (hydroxypropylcellulose) (HPC)) was 107 % of control, the T/C (dose: 100.0 mg/kg/injection, schedule: Q01DX011 (ip), vehicle: Klucel (hydroxypropylcellulose) (HPC)) was 109 % of control and the T/C (dose: 200.0 mg/kg/injection, schedule: Q01DX011 (ip), vehicle: Klucel (hydroxypropylcellulose) (HPC)) was 100 % of control. For the same compound, the T/C (dose: 400.0 mg/kg/injection, schedule: Q01DX011 (ip), vehicle: Klucel (hydroxypropylcellulose) (HPC)) was 102 % of control.
For `O=C(CCCCC(=O)Nc1ccc(C(=O)Nc2cc(C3=NCCN3)cc(C3=NCCN3)c2)cc1)Nc1ccc(C(=O)Nc2cc(C3=NCCN3)cc(C3=NCCN3)c2)cc1`, the T/C (dose: 66.0 mg/kg/injection, schedule: Q01DX009 (ip), vehicle: saline) was 150 % of control, the T/C (dose: 150.0 mg/kg/injection, schedule: Q01DX009 (ip), vehicle: saline) was 150 % of control and the T/C (dose: 150.0 mg/kg/injection, schedule: Q04DX003 (ip), vehicle: saline) was 154 % of control. For the same compound, the T/C [3] was 150 % of control.
`COc1ccc(C2CCc3cc(OC)c(OC)cc3C2=O)cc1OC` (stereo unspecified) was tested, and the T/C (dose: 20.0 mg/kg/injection, schedule: Q01DX009 (ip), vehicle: saline with Tween-80) was 87 % of control, the T/C (dose: 80.0 mg/kg/injection, schedule: Q01DX009 (ip), vehicle: saline with Tween-80) was 91 % of control and the T/C (dose: 120.0 mg/kg/injection, schedule: Q01DX009 (ip), vehicle: saline with Tween-80) was 87 % of control.
With `COC(=O)CNC(=O)C(Cc1ccc(OCc2ccccc2)cc1)NC(=O)OC(C)(C)C` (stereo unspecified) the T/C (dose: 100.0 mg/kg/injection, schedule: Q04DX003 (ip), vehicle: saline with Tween-80) was 105 % of control, the T/C (dose: 200.0 mg/kg/injection, schedule: Q04DX003 (ip), vehicle: saline with Tween-80) was 120 % of control and the T/C (dose: 400.0 mg/kg/injection, schedule: Q04DX003 (ip), vehicle: saline with Tween-80) was 120 % of control.
